Reference: publication PMC5632533, “Mechanisms of action and in vivo antibacterial efficacy assessment of five novel hybrid peptides derived from Indolicidin and Ranalexin against Streptococcus pneumoniae” (PeerJ, 2017)

Experiments:
S. pneumoniae = experiment: ATP efflux assay; assay type: cell-based, Streptococcus pneumoniae; conditions: 1 × 10^7 CFU/ml; peptides 125 µg/ml (RN7-IN7 500 µg/ml); luciferin/luciferase, ATP standard curve; mean ± SD, three independent experiments
ICR (CD-1) mice = experiment: In vivo toxicity in mice (SC, IN, IP routes); parameters: Aspartate aminotransferase, AST / Alanine transaminase, ALT / Alkaline phosphatase, ALP / Creatinine / Urea / Total bilirubin: unit not given here; conditions: for Eosinophil / Erythrocytes, RBC / Granulocytes / Hematocrit, HCT / Hemoglobin Hgb / Lymphocytes / Mean corpuscular haemoglobin concentration, MCHC / Mean corpuscular haemoglobin, MCH / Mean corpuscular volume, MCV / Monocytes / White blood cells, WBC / platelet Counts, PLT / Alanine transaminase, ALT / Alkaline phosphatase, ALP / Aspartate aminotransferase, AST / Creatinine / Total bilirubin / Urea: 3 doses (1hr, 12hr, 24hr), RN7-IN9, RN7-IN6 10 mg/kg, day 7, mean±SD, 4 mice; for Alanine transaminase, ALT / Alkaline phosphatase, ALP / Aspartate aminotransferase, AST / Creatinine / Total bilirubin / Urea: serum
Protocol: In this study, 4-week old male, pathogen free ICR (CD-1) mice were purchased from InVivos (Lim Chu Kang, Singapore) and used to assess the in vivo toxicity and antibacterial efficacy of the novel peptides, as these animals are by far the most commonly used model for the study of pneumococcal disease ([Chiavolini, Pozzi & Ricci, 2008]). The mice were kept in ventilated polycarbonate cages (12 h light/dark cycle, 20 ± 2 °C and 55% relative humidity). All mice were familiarized for seven days before any experimental procedure and were given unlimited pellets and water ad libitum. All animal experimentations were conducted according to the guidelines approved by Faculty of Medicine Institutional Animal Care and Use Committee (FOM IACUC), University of Malaya (ethics Reference no. : 2013-07-15/MMBTR/SDS).
In order to evaluate the possible toxic effects correlated to peptides administered in mice, four hybrid peptides RN7-IN10, RN7-IN9, RN7-IN8 and RN7-IN6 were chosen for in vivo toxicity assessment, due to their promising in vitro antibacterial activity ([Jindal et al., 2015]). Mice were separated into four groups (each with four mice) and were injected with respective peptides at 1 h, 12 h, and 24 h (three-dose regimen) via IP, SC, and IN administration routes. The hybrid peptides were first administered at high doses (100 mg/kg for IP route, 100 mg/kg for SC routes and 20 mg/kg for IN route). Any abnormal behavior was recorded and survival of mice was noted as well. In case adverse effects such as high physical stress, severe lethargy, physical inactiveness, and/or death were detected, lower graded doses were given. All the administered mice were monitored for seven days or until death occurred. At day seven post administration, all animals were sacrificed and blood and organs were collected. Untreated mice were used as a control group.
Mice used to evaluate the in vivo toxicity and antibacterial activity of the hybrid peptides using the subcutaneous (SC) and intranasal (IN) administration routes, were anesthetized using a combination of a standard dose of xylazine (ilium xylazil-20, 10 mg/kg) and ketamine (Narketan®-10, 100 mg/kg) through intraperitoneal (IP) injection. After seven days of treatment, the in vivo toxicity and antibacterial efficacy experiments were ended and the surviving mice were anesthetized. Blood samples for Hematological and biochemical analysis were collected via cardiac puncture using a 25G syringe (BD bioscience, San Jose, CA, USA). Whole blood for heamatological analysis was collected in 500 µl dipotassium EDTA microtainer tubes (BD Bioscience, USA). About 500 µl of blood collected an eppedorff tube and centrifuged at 8000 rpm for 5 min and then the serum was transferred into a new 1.5 ml tube for biochemistry analysis. The mice were then euthanized by cervical dislocation, dissected and the following organs were collected for histopathology evaluation: lung, kidney, brain, liver and spleen.
For whole blood analysis, the parameters were number of red cells (RBC), number of white cells (WBC), lymphocytes, monocytes, eosinophil, granulocytes, haemoglobin (Hgb), mean corpuscular volume (MCV), hematocrit (HCT), platelet Counts (PLT), Mean corpuscular haemoglobin (MCH) and corpuscular haemoglobin concentration (MCHC). For biochemistry analysis, the parameters were alanine transaminase (ALT), creatinine, alkaline phosphatase (ALP), aspartate aminotransferase (AST), total bilirubin and urea.
The following organs were collected from all the dissected mice: lung, kidney, brain, spleen, and liver. All tissues were fixed in 10% (v/v) buffered formalin and processed for paraffin embedding. Hematoxylin–eosin (HE) was used to stain the histological sections at the histopathology laboratory, Veterinary Laboratory Service Unit, University Putra Malaysia (UPM).

[1] = IN, head doses: RN7-IN10, RN7-IN8 20 mg/kg
[2] = SC, head doses: RN7-IN10, RN7-IN8 20 mg/kg

FLGGLIKWPWWPWRR-NH2 [RN7-IN8, hybrid peptide of ranalexin (residues 1-7) and indolicidin (residues 6-13)]
ATP released from pneumococcal cells after 1 h (S. pneumoniae): 39.03 ± 0.2 pM | ATP released from pneumococcal cells after 3 h (S. pneumoniae): 20.54 ± 1.03 pM | Eosinophil (ICR (CD-1) mice; [1]): 4.3±3.6% | Erythrocytes, RBC (ICR (CD-1) mice; [1]): 8.95±0.53 10^6/mm^3 | Granulocytes (ICR (CD-1) mice; [1]): 52.9±9.54% | Hematocrit, HCT (ICR (CD-1) mice; [1]): 44.8±2.9% | Hemoglobin Hgb (ICR (CD-1) mice; [1]): 14.42 ± 0.76 g/dL | Lymphocytes (ICR (CD-1) mice; [1]): 45.6±14.31% | Mean corpuscular haemoglobin concentration, MCHC (ICR (CD-1) mice; [1]): 32.22 ± 0.4 g/dL | Mean corpuscular haemoglobin, MCH (ICR (CD-1) mice; [1]): 16.12 ± 0.33 pg | Mean corpuscular volume, MCV (ICR (CD-1) mice; [1]): 50.25±1.25 µm^3 | Monocytes (ICR (CD-1) mice; [1]): 3.22±0.68% | White blood cells, WBC (ICR (CD-1) mice; [1]): 3.95±0.54 10^3/mm^3 | platelet Counts, PLT (ICR (CD-1) mice; [1]): 612±130.37 10^3/mm^3 | Eosinophil (ICR (CD-1) mice; IP, RN7-IN10, RN7-IN8 20 mg/kg): 2.34±0.63% | Erythrocytes, RBC (ICR (CD-1) mice; IP, RN7-IN10, RN7-IN8 20 mg/kg): 8.14±0.34 10^6/mm^3 | Granulocytes (ICR (CD-1) mice; IP, RN7-IN10, RN7-IN8 20 mg/kg): 53.38±12.35% | Hematocrit, HCT (ICR (CD-1) mice; IP, RN7-IN10, RN7-IN8 20 mg/kg): 42.73±1.66% | Hemoglobin Hgb (ICR (CD-1) mice; IP, RN7-IN10, RN7-IN8 20 mg/kg): 14.55 ± 0.17 g/dL | Lymphocytes (ICR (CD-1) mice; IP, RN7-IN10, RN7-IN8 20 mg/kg): 53.7±8.22% | Mean corpuscular haemoglobin concentration, MCHC (ICR (CD-1) mice; IP, RN7-IN10, RN7-IN8 20 mg/kg): 34.17 ± 1.13 g/dL | Mean corpuscular haemoglobin, MCH (ICR (CD-1) mice; IP, RN7-IN10, RN7-IN8 20 mg/kg): 17.92 ± 0.56 pg | Mean corpuscular volume, MCV (ICR (CD-1) mice; IP, RN7-IN10, RN7-IN8 20 mg/kg): 52.75±0.95 µm^3 | Monocytes (ICR (CD-1) mice; IP, RN7-IN10, RN7-IN8 20 mg/kg): 2.77±0.88% | White blood cells, WBC (ICR (CD-1) mice; IP, RN7-IN10, RN7-IN8 20 mg/kg): 4.18±0.36 10^3/mm^3 | platelet Counts, PLT (ICR (CD-1) mice; IP, RN7-IN10, RN7-IN8 20 mg/kg): 472.5±100.52 10^3/mm^3 | maximum IP dose at which no signs of stress or abnormal behavior were evident (non-toxic dose) (ICR (CD-1) mice; IP, doses at 1 h, 12 h, 24 h, no death up to seven days): 20 mg/kg | Eosinophil (ICR (CD-1) mice; [2]): 2.42±0.61% | Erythrocytes, RBC (ICR (CD-1) mice; [2]): 9.17±0.83 10^6/mm^3 | Granulocytes (ICR (CD-1) mice; [2]): 58.62±9.82% | Hematocrit, HCT (ICR (CD-1) mice; [2]): 46.15±3.69% | Hemoglobin Hgb (ICR (CD-1) mice; [2]): 15.82 ± 1.11 g/dL | Lymphocytes (ICR (CD-1) mice; [2]): 43.85±6.28% | Mean corpuscular haemoglobin concentration, MCHC (ICR (CD-1) mice; [2]): 34.38 ± 0.52 g/dL | Mean corpuscular haemoglobin, MCH (ICR (CD-1) mice; [2]): 17.32 ± 0.49 pg | Mean corpuscular volume, MCV (ICR (CD-1) mice; [2]): 50.25±0.95 µm^3 | Monocytes (ICR (CD-1) mice; [2]): 1.92±0.15% | White blood cells, WBC (ICR (CD-1) mice; [2]): 3.47±0.48 10^3/mm^3 | platelet Counts, PLT (ICR (CD-1) mice; [2]): 445.75±47.21 10^3/mm^3 | Alanine transaminase, ALT (ICR (CD-1) mice; [1]): 44.5±18.9 | Alkaline phosphatase, ALP (ICR (CD-1) mice; [1]): 128.5±21.7 | Aspartate aminotransferase, AST (ICR (CD-1) mice; [1]): 176.3±31.91 | Creatinine (ICR (CD-1) mice; [1]): 40.56±1.74 | Total bilirubin (ICR (CD-1) mice; [1]): 2.21±0.18 | Urea (ICR (CD-1) mice; [1]): 8.89±1.30 | Alanine transaminase, ALT (ICR (CD-1) mice; IP, RN7-IN10, RN7-IN8 20 mg/kg): 62.1±23.84 | Alkaline phosphatase, ALP (ICR (CD-1) mice; IP, RN7-IN10, RN7-IN8 20 mg/kg): 115.4±34.9 | Aspartate aminotransferase, AST (ICR (CD-1) mice; IP, RN7-IN10, RN7-IN8 20 mg/kg): 148.9±21.51 | Creatinine (ICR (CD-1) mice; IP, RN7-IN10, RN7-IN8 20 mg/kg): 39.2±3.81 | Total bilirubin (ICR (CD-1) mice; IP, RN7-IN10, RN7-IN8 20 mg/kg): 1.98±0.11 | Urea (ICR (CD-1) mice; IP, RN7-IN10, RN7-IN8 20 mg/kg): 10.34±2.36 | Alanine transaminase, ALT (ICR (CD-1) mice; [2]): 50±5.49 | Alkaline phosphatase, ALP (ICR (CD-1) mice; [2]): 134±8.24 | Aspartate aminotransferase, AST (ICR (CD-1) mice; [2]): 170.75±14.52 | Creatinine (ICR (CD-1) mice; [2]): 43.4±0.8 | Total bilirubin (ICR (CD-1) mice; [2]): 1.84±0.12 | Urea (ICR (CD-1) mice; [2]): 9.61±3.02
